Common to all, as to format: biochemical
One test addresses T1, Human Calpain 1/NS1 (Homo sapiens, UniProt P07384).
T1 sequence (P07384 1-714): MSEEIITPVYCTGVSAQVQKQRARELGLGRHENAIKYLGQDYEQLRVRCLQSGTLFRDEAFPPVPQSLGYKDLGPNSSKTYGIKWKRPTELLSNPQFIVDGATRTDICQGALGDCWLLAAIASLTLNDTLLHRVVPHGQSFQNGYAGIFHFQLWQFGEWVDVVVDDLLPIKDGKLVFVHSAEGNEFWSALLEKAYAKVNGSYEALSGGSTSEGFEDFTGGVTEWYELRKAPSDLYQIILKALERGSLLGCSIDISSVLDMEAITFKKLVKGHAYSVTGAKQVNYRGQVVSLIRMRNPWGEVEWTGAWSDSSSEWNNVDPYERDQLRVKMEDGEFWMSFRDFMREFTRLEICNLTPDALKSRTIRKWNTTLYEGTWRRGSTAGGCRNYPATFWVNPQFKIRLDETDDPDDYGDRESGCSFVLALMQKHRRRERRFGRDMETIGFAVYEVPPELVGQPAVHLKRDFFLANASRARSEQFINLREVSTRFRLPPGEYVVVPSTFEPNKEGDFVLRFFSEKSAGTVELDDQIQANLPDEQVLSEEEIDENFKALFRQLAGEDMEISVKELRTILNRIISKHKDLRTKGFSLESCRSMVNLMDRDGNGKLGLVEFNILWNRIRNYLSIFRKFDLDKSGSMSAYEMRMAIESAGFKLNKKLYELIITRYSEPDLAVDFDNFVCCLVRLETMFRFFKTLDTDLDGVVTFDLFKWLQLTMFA
T1 sequence (P04632 1-268 partner): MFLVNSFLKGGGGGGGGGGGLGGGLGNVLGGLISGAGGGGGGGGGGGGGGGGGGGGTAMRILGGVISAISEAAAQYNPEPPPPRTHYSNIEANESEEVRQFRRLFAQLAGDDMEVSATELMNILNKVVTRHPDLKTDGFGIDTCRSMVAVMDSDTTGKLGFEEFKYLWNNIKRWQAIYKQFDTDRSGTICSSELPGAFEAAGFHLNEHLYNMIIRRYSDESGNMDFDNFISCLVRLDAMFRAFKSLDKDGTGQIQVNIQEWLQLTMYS
The experiment in a line: Calpain inhibition continuous fluorescence (FRET) assay, Human Calpain 1/NS1. To be noted: read-out: Human Calpain 1/NS1 IC50. A digest of the protocol: (§1)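 Buffer 50 mM Tris pH 7.5/100 mM NaCl/1 mM DTT; enzyme + cpd preinc 25C; start w/ FRET substrate + CaCl2; kinetic 490/520 nm, 10 min; slopes 1-5 min; 4-PL IC50.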

The next test concerns the target T2, Human Calpain 9/NS1 (Homo sapiens, UniProt O14815).
T2 sequence (O14815 1-690): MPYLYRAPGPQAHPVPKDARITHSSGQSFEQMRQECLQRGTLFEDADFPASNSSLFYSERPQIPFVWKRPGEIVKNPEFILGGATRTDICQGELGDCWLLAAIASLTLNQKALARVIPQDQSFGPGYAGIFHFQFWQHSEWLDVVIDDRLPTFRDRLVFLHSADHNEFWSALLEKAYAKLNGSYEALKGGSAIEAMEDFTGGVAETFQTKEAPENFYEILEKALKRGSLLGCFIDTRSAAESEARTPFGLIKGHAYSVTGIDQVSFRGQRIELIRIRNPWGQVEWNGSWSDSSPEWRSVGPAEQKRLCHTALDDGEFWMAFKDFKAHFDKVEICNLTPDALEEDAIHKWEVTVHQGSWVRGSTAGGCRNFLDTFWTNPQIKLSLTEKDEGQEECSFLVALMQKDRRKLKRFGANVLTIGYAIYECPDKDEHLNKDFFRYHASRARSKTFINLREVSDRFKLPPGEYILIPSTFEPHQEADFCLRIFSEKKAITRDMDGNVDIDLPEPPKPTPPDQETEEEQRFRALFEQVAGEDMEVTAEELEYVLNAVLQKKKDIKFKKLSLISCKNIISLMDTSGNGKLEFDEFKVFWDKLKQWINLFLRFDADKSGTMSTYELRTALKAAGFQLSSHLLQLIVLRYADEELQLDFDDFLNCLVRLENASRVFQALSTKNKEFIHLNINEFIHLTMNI
T2 sequence (P04632 1-268 partner): T1 sequence (P04632 1-268 partner)
The test is described as follows: Calpain inhibition continuous fluorescence (FRET) assay, Human Calpain 9/NS1. To be noted: read-out: Human Calpain 9/NS1 IC50. Put shortly:
as §1

The target in a further test is T3, Human Calpain 2/NS1 (Homo sapiens, UniProt P17655).
T3 sequence (P17655 1-700): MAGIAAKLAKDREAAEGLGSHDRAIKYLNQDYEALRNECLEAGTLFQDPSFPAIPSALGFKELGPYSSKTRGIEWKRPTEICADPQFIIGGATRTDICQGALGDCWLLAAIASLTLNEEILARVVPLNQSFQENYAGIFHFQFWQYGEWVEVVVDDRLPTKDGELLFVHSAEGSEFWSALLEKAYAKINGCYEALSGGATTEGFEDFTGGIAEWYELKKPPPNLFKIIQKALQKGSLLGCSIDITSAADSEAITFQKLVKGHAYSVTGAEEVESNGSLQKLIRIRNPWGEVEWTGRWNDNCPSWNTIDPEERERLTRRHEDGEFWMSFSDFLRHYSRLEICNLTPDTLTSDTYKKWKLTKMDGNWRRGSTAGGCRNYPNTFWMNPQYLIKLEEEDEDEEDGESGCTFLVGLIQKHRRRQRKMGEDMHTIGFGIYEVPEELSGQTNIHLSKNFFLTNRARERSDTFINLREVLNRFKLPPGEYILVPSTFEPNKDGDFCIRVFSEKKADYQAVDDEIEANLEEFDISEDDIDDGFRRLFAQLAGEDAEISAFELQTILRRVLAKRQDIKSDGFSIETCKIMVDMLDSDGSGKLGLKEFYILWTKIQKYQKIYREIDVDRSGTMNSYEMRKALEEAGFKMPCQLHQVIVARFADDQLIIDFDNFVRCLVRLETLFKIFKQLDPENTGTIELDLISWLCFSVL
T3 sequence (P04632 1-268 partner): T1 sequence (P04632 1-268 partner)
The experiment in a line: Calpain inhibition continuous fluorescence (FRET) assay, Human Calpain 2/NS1. Conditions: read-out: Human Calpain 2/NS1 IC50. Put shortly: as §1

Like-named read-outs stand apart in the source and are kept apart here.

Our source for the IC50 values is patent US11339130B1 (Blade Therapeutics, Inc., priority 2016, dated 2022).

For the compound `CC(C)(C)c1cc(C(=O)N[C@@H](Cc2ccccc2)C(=O)C(=O)NC2CC2)n(-c2ccccc2)n1` [Compound 137, (S)-3-(tert-butyl)-N-(4-(cyclopropylamino)-3,4-dioxo-1-phenylbutan-2-yl)-1-phenyl-1H-pyrazole-5-carboxamide], the IC50 at Human Calpain 1/NS1 (Column A), at Human Calpain 9/NS1 (Column C) and on Human Calpain 2/NS1 (Column B) was > 10 µM in each case.
For `O=C(NC1CC1)C(=O)[C@H](Cc1ccccc1)NC(=O)c1cncn1-c1nc2ccccc2s1` [Compound 43, (S)-1-(benzo[d]thiazol-2-yl)-N-(4-(cyclopropylamino)-3,4-dioxo-1-phenylbutan-2-yl)-1H-imidazole-5-carboxamide], the IC50 at Human Calpain 1/NS1 (Column A), on Human Calpain 9/NS1 (Column C) and on Human Calpain 2/NS1 (Column B) was < 3 µM each time.
`Cc1noc(-c2ccccc2)c1C(=O)N[C@@H](CCc1ccccc1)C(=O)C(N)=O` [Compound 205, (S)—N-(1-amino-1,2-dioxo-5-phenylpentan-3-yl)-3-methyl-5-phenylisoxazole-4-carboxamide]: the IC50 at Human Calpain 1/NS1 (Column A), at Human Calpain 9/NS1 (Column C) and at Human Calpain 2/NS1 (Column B) was < 3 µM in each case.
Regarding `O=C[C@H](Cc1ccccc1)NC(=O)c1cncn1-c1ccc(-c2ncco2)cn1` [Compound 111, (S)-1-(5-(oxazol-2-yl)pyridin-2-yl)-N-(1-oxo-3-phenylpropan-2-yl)-1H-imidazole-5-carboxamide], the IC50 on Human Calpain 1/NS1 (Column A), on Human Calpain 9/NS1 (Column C) and on Human Calpain 2/NS1 (Column B) was < 3 µM in each case.
Regarding `Cn1cc(C(=O)N[C@@H](Cc2ccccc2)C(=O)C(N)=O)c(-c2ccncn2)n1` [Compound 192, (S)—N-(4-amino-3,4-dioxo-1-phenylbutan-2-yl)-1-methyl-3-(pyrimidin-4-yl)-1H-pyrazole-4-carboxamide], the IC50 at Human Calpain 1/NS1 (Column A), at Human Calpain 9/NS1 (Column C) and on Human Calpain 2/NS1 (Column B) was < 3 µM throughout.
As for `O=C(NC1CC1)C(=O)[C@H](Cc1ccccc1)NC(=O)c1cncn1-c1ncc(-c2ccccc2)s1` [Compound 53, (S)—N-(4-(cyclopropylamino)-3,4-dioxo-1-phenylbutan-2-yl)-1-(5-phenylthiazol-2-yl)-1H-imidazole-5-carboxamide], the figures for the IC50 at Human Calpain 1/NS1 (Column A), at Human Calpain 9/NS1 (Column C) and on Human Calpain 2/NS1 (Column B) were < 3 µM, 3 to 10 µM and < 3 µM, respectively.
Regarding `O=C[C@H](Cc1ccccc1)NC(=O)[C@@H]1CCCN1c1nc2ccccc2o1` [Compound 4, (S)-1-(benzo[D]oxazol-2-yl)-N—((S)-1-oxo-3-phenylpropan-2-yl)pyrrolidine-2-carboxamide], the IC50 at Human Calpain 1/NS1 (Column A), on Human Calpain 9/NS1 (Column C) and at Human Calpain 2/NS1 (Column B) was < 3 µM in each case.
As for `O=C[C@H](Cc1ccccc1)NC(=O)c1cncs1` [Compound 91, (S)—N-(1-oxo-3-phenylpropan-2-yl)thiazole-5-carboxamide], the figures for the IC50 on Human Calpain 1/NS1 (Column A), on Human Calpain 9/NS1 (Column C) and on Human Calpain 2/NS1 (Column B) were 3 to 10 µM, 3 to 10 µM and < 3 µM, respectively.
`O=C(NC1CC1)C(=O)[C@H](Cc1ccccc1)NC(=O)c1sc(C2CC2)nc1-c1ccccc1` [Compound 135, (S)-2-cyclopropyl-N-(4-(cyclopropylamino)-3,4-dioxo-1-phenylbutan-2-yl)-4-phenylthiazole-5-carboxamide]: the IC50 was < 3 µM on Human Calpain 1/NS1 (Column A), > 10 µM at Human Calpain 9/NS1 (Column C) and < 3 µM on Human Calpain 2/NS1 (Column B).
As for `NC(=O)C(=O)C(Cc1ccccc1)NC(=O)c1cnoc1Cc1ccccc1` (stereo not drawn) [Compound 491, N-(4-amino-3,4-dioxo-1-phenylbutan-2-yl)-5-benzylisoxazole-4-carboxamide], the IC50 on Human Calpain 1/NS1 was < 3 µM; on Human Calpain 9/NS1, 3 to 10 µM; at Human Calpain 2/NS1, < 3 µM.
For the compound `O=C[C@H](Cc1ccccc1)NC(=O)c1cncn1-c1nc2ccccc2[nH]1` [Compound 90, (S)-1-(1H-benzo[d]imidazol-2-yl)-N-(1-oxo-3-phenylpropan-2-yl)-1H-imidazole-5-carboxamide], the values for the IC50 at Human Calpain 1/NS1 (Column A), on Human Calpain 9/NS1 (Column C) and on Human Calpain 2/NS1 (Column B) were < 3 µM, 3 to 10 µM and < 3 µM, respectively.
As for `NC(=O)C(=O)[C@H](Cc1ccccc1)NC(=O)c1ncoc1-c1ccccc1` [Compound 148, (S)—N-(4-amino-3,4-dioxo-1-phenylbutan-2-yl)-5-phenyloxazole-4-carboxamide], the IC50 at Human Calpain 1/NS1 (Column A), at Human Calpain 9/NS1 (Column C) and on Human Calpain 2/NS1 (Column B) was < 3 µM throughout.
On to `NC(=O)C(=O)[C@H](Cc1ccccc1)NC(=O)c1ccsc1-c1ccccc1` [Compound 270, (S)—N-(4-amino-3,4-dioxo-1-phenylbutan-2-yl)-2-phenylthiophene-3-carboxamide], for which the IC50 at Human Calpain 1/NS1 (Column A), on Human Calpain 9/NS1 (Column C) and on Human Calpain 2/NS1 (Column B) was < 3 µM each time.
`Cc1nc(C(=O)NC(Cc2ccccc2)C(=O)C(N)=O)c(-c2ccccn2)o1` (stereo not drawn) [Compound 314, N-(4-amino-3,4-dioxo-1-phenylbutan-2-yl)-2-methyl-5-(pyridin-2-yl)oxazole-4-carboxamide]: the IC50 on Human Calpain 1/NS1, on Human Calpain 9/NS1 and on Human Calpain 2/NS1 was 3 to 10 µM throughout.
Turning to `Cn1ncc(C(=O)N[C@@H](Cc2ccccc2)C(=O)C(N)=O)c1-c1ncccn1` [Compound 191, (S)—N-(4-amino-3,4-dioxo-1-phenylbutan-2-yl)-1-methyl-5-(pyrimidin-2-yl)-1H-pyrazole-4-carboxamide], the IC50 on Human Calpain 1/NS1 (Column A), at Human Calpain 9/NS1 (Column C) and at Human Calpain 2/NS1 (Column B) was < 3 µM each time.
As to `Cc1ccccc1-c1c(C(=O)N[C@@H](Cc2ccccc2)C(=O)C(N)=O)cnn1C` [Compound 190, (S)—N-(4-amino-3,4-dioxo-1-phenylbutan-2-yl)-1-methyl-5-(o-tolyl)-1H-pyrazole-4-carboxamide], the IC50 on Human Calpain 1/NS1 (Column A) is 3 to 10 µM; on Human Calpain 9/NS1 (Column C) it was 3 to 10 µM; at Human Calpain 2/NS1 (Column B) it was > 10 µM.
`Cn1cc(C(=O)NC(Cc2ccccc2)C(=O)C(N)=O)c(-c2ccc(Cl)s2)n1` (stereo not drawn) [Compound 621, N-(4-amino-3,4-dioxo-1-phenylbutan-2-yl)-3-(5-chlorothiophen-2-yl)-1-methyl-1H-pyrazole-4-carboxamide]: the IC50 on Human Calpain 1/NS1, on Human Calpain 9/NS1 and at Human Calpain 2/NS1 was < 3 µM in each case.
